Here are results for 16 molecules from ChEMBL document CHEMBL5120920, “A Mitochondria-Targeted Phenylbutyric Acid Prodrug Confers Drastically Improved Anticancer Activities” (J Med Chem, 2022).

The subject of the first assay is A549. The assay is described as follows: Antiproliferative activity against human A549 cells assessed as inhibition of cell viability incubated for 72 hrs by MTT assay. It counts as functional, cell-based. The following applies: A549, 72 h.
By IC50 is commonly meant the concentration at which inhibition is half-maximal. `O=C(CCCc1ccccc1)NCC(CNC(=O)CCCc1ccccc1)(CNC(=O)CCCc1ccccc1)NC(=O)CCCC[P+](c1ccccc1)(c1ccccc1)c1ccccc1`: the IC50 was 2.15 µM.

`O=C(O)CCC[P+](c1ccccc1)(c1ccccc1)c1ccccc1`: the IC50 was above 20 µM.

In the case of `O=C(CCCc1ccccc1)NCC(CNC(=O)CCCc1ccccc1)(CNC(=O)CCCc1ccccc1)NC(=O)CCCCCCCCCCC[P+](c1ccccc1)(c1ccccc1)c1ccccc1`, the half-maximal inhibitory concentration (IC50) turned out to be 0.57 µM.

As to `N#Cc1ccc([P+](CCCCCCCCCC(=O)O)(c2ccc(C#N)cc2)c2ccc(C#N)cc2)cc1`, the half-inhibitory concentration (IC50) was above 20 µM.

`O=C(CCCc1ccccc1)NCC(CNC(=O)CCCc1ccccc1)(CNC(=O)CCCc1ccccc1)NC(=O)CC[P+](c1ccccc1)(c1ccccc1)c1ccccc1`: the 50% inhibitory concentration (IC50) worked out at 5.3 µM.

For `COc1cccc([P+](CCCCCCCCCC(=O)O)(c2cccc(OC)c2)c2cccc(OC)c2)c1`, the IC50 was above 20 µM.

As for `N#Cc1ccc([P+](CCCCCCCCCC(=O)NC(CNC(=O)CCCc2ccccc2)(CNC(=O)CCCc2ccccc2)CNC(=O)CCCc2ccccc2)(c2ccc(C#N)cc2)c2ccc(C#N)cc2)cc1`, the concentration for half-maximal inhibition (IC50) was found to be 4.06 µM.

As to `O=C(O)CCCCCCCCCCC[P+](c1ccccc1)(c1ccccc1)c1ccccc1`, the IC50 is above 20 µM.

For `O=C(O)CCCCCCCCC[P+](c1ccc(F)cc1)(c1ccc(F)cc1)c1ccc(F)cc1`, the concentration for half-maximal inhibition (IC50) was above 20 µM.

`O=C(CCCc1ccccc1)NCC(CNC(=O)CCCc1ccccc1)(CNC(=O)CCCc1ccccc1)NC(=O)CCC[P+](c1ccccc1)(c1ccccc1)c1ccccc1`: the IC50 came to 624 µM.

On to `O=C(CCCc1ccccc1)NCC(CNC(=O)CCCc1ccccc1)(CNC(=O)CCCc1ccccc1)NC(=O)CCCCC[P+](c1ccccc1)(c1ccccc1)c1ccccc1`, for which the half-inhibitory concentration (IC50) worked out at 7.7 µM.

On to `O=C(CCCc1ccccc1)NCC(CNC(=O)CCCc1ccccc1)(CNC(=O)CCCc1ccccc1)NC(=O)CCCCCCCCC[P+](c1ccc(F)cc1)(c1ccc(F)cc1)c1ccc(F)cc1`, for which the half-maximal inhibitory concentration (IC50) came out at 2.19 µM.

As to `O=C(O)CCCC[P+](c1ccccc1)(c1ccccc1)c1ccccc1`, the IC50 is above 20 µM.

On to `Cc1ccc([P+](CCCCCCCCCC(=O)O)(c2ccc(C)cc2)c2ccc(C)cc2)cc1`, for which the 50% inhibitory concentration (IC50) is above 20 µM.

The test system of a further assay is MCF7. The assay is described as follows: Antiproliferative activity against human MCF7 cells assessed as inhibition of cell viability incubated for 72 hrs by MTT assay. It is filed as functional, cell-based. The following applies: MCF7, 72 h. On the technique in general: Formazan colour is commonly taken as a measure of viable cells.
As for `O=C(CCCc1ccccc1)NCC(CNC(=O)CCCc1ccccc1)(CNC(=O)CCCc1ccccc1)NC(=O)CCCC[P+](c1ccccc1)(c1ccccc1)c1ccccc1`, the IC50 worked out at 2.02 µM.

In the case of `O=C(O)CCC[P+](c1ccccc1)(c1ccccc1)c1ccccc1`, the IC50 is above 20 µM.

Take `O=C(CCCc1ccccc1)NCC(CNC(=O)CCCc1ccccc1)(CNC(=O)CCCc1ccccc1)NC(=O)CCCCCCCCCCC[P+](c1ccccc1)(c1ccccc1)c1ccccc1`: the 50% inhibitory concentration (IC50) turned out to be 0.44 µM.

Take `N#Cc1ccc([P+](CCCCCCCCCC(=O)O)(c2ccc(C#N)cc2)c2ccc(C#N)cc2)cc1`: the IC50 was above 20 µM.

In the case of `O=C(CCCc1ccccc1)NCC(CNC(=O)CCCc1ccccc1)(CNC(=O)CCCc1ccccc1)NC(=O)CC[P+](c1ccccc1)(c1ccccc1)c1ccccc1`, the 50% inhibitory concentration (IC50) stood at 3.34 µM.

Take `COc1cccc([P+](CCCCCCCCCC(=O)O)(c2cccc(OC)c2)c2cccc(OC)c2)c1`: the concentration for half-maximal inhibition (IC50) is above 20 µM.

With `N#Cc1ccc([P+](CCCCCCCCCC(=O)NC(CNC(=O)CCCc2ccccc2)(CNC(=O)CCCc2ccccc2)CNC(=O)CCCc2ccccc2)(c2ccc(C#N)cc2)c2ccc(C#N)cc2)cc1`, the IC50 stood at 8.56 µM.

In the case of `O=C(O)CCCCCCCCCCC[P+](c1ccccc1)(c1ccccc1)c1ccccc1`, the IC50 is above 20 µM.

With `O=C(O)CCCCCCCCC[P+](c1ccc(F)cc1)(c1ccc(F)cc1)c1ccc(F)cc1`, the IC50 was above 20 µM.

Turning to `O=C(CCCc1ccccc1)NCC(CNC(=O)CCCc1ccccc1)(CNC(=O)CCCc1ccccc1)NC(=O)CCC[P+](c1ccccc1)(c1ccccc1)c1ccccc1`, the concentration for half-maximal inhibition (IC50) was found to be 2.72 µM.

As to `O=C(CCCc1ccccc1)NCC(CNC(=O)CCCc1ccccc1)(CNC(=O)CCCc1ccccc1)NC(=O)CCCCC[P+](c1ccccc1)(c1ccccc1)c1ccccc1`, the IC50 came to 2.46 µM.

`O=C(CCCc1ccccc1)NCC(CNC(=O)CCCc1ccccc1)(CNC(=O)CCCc1ccccc1)NC(=O)CCCCCCCCC[P+](c1ccc(F)cc1)(c1ccc(F)cc1)c1ccc(F)cc1`: the 50% inhibitory concentration (IC50) was 2.26 µM.

With `O=C(O)CCCC[P+](c1ccccc1)(c1ccccc1)c1ccccc1`, the half-maximal inhibitory concentration (IC50) is above 20 µM.

As to `Cc1ccc([P+](CCCCCCCCCC(=O)O)(c2ccc(C)cc2)c2ccc(C)cc2)cc1`, the concentration for half-maximal inhibition (IC50) was above 20 µM.

In the next assay the test system is MDA-MB-231. As to the kind of experiment: Antiproliferative activity against human MDA-MB-231 cells assessed as inhibition of cell viability incubated for 72 hrs by MTT assay. It counts as functional, cell-based. The conditions noted are these: MDA-MB-231, 72 h.
For the molecule `O=C(CCCc1ccccc1)NCC(CNC(=O)CCCc1ccccc1)(CNC(=O)CCCc1ccccc1)NC(=O)CCCC[P+](c1ccccc1)(c1ccccc1)c1ccccc1`, the half-inhibitory concentration (IC50) is 3.51 µM.

With `O=C(O)CCC[P+](c1ccccc1)(c1ccccc1)c1ccccc1`, the IC50 is above 20 µM.

Take `O=C(CCCc1ccccc1)NCC(CNC(=O)CCCc1ccccc1)(CNC(=O)CCCc1ccccc1)NC(=O)CCCCCCCCCCC[P+](c1ccccc1)(c1ccccc1)c1ccccc1`: the IC50 was found to be 0.24 µM.

`N#Cc1ccc([P+](CCCCCCCCCC(=O)O)(c2ccc(C#N)cc2)c2ccc(C#N)cc2)cc1`: the IC50 is above 20 µM.

As for `O=C(CCCc1ccccc1)NCC(CNC(=O)CCCc1ccccc1)(CNC(=O)CCCc1ccccc1)NC(=O)CC[P+](c1ccccc1)(c1ccccc1)c1ccccc1`, the IC50 was found to be 9.64 µM.

With `COc1cccc([P+](CCCCCCCCCC(=O)O)(c2cccc(OC)c2)c2cccc(OC)c2)c1`, the IC50 was above 20 µM.

Consider `N#Cc1ccc([P+](CCCCCCCCCC(=O)NC(CNC(=O)CCCc2ccccc2)(CNC(=O)CCCc2ccccc2)CNC(=O)CCCc2ccccc2)(c2ccc(C#N)cc2)c2ccc(C#N)cc2)cc1`, for which the IC50 turned out to be 3.96 µM.

In the case of `O=C(O)CCCCCCCCCCC[P+](c1ccccc1)(c1ccccc1)c1ccccc1`, the IC50 was above 20 µM.

For `O=C(O)CCCCCCCCC[P+](c1ccc(F)cc1)(c1ccc(F)cc1)c1ccc(F)cc1`, the half-inhibitory concentration (IC50) is above 20 µM.

In the case of `O=C(CCCc1ccccc1)NCC(CNC(=O)CCCc1ccccc1)(CNC(=O)CCCc1ccccc1)NC(=O)CCC[P+](c1ccccc1)(c1ccccc1)c1ccccc1`, the concentration for half-maximal inhibition (IC50) came out at 9.27 µM.

Consider `O=C(CCCc1ccccc1)NCC(CNC(=O)CCCc1ccccc1)(CNC(=O)CCCc1ccccc1)NC(=O)CCCCC[P+](c1ccccc1)(c1ccccc1)c1ccccc1`, for which the IC50 came to 3.62 µM.

As to `O=C(CCCc1ccccc1)NCC(CNC(=O)CCCc1ccccc1)(CNC(=O)CCCc1ccccc1)NC(=O)CCCCCCCCC[P+](c1ccc(F)cc1)(c1ccc(F)cc1)c1ccc(F)cc1`, the half-inhibitory concentration (IC50) came out at 1.28 µM.

With `O=C(O)CCCC[P+](c1ccccc1)(c1ccccc1)c1ccccc1`, the IC50 is above 20 µM.

On to `Cc1ccc([P+](CCCCCCCCCC(=O)O)(c2ccc(C)cc2)c2ccc(C)cc2)cc1`, for which the half-maximal inhibitory concentration (IC50) was above 20 µM.

A further assay has as its system A-375. The assay is described as follows: Antiproliferative activity against human A-375 cells assessed as inhibition of cell viability incubated for 72 hrs by MTT assay. The following applies: A-375, 72 h. It counts as functional, cell-based.
In the case of `CCOC(=O)CCCc1ccccc1`, the IC50 was above 2000 µM.

On to `O=C(CCCc1ccccc1)NCC(CNC(=O)CCCc1ccccc1)(CNC(=O)CCCc1ccccc1)NC(=O)CCCC[P+](c1ccccc1)(c1ccccc1)c1ccccc1`, for which the concentration for half-maximal inhibition (IC50) amounted to 232 µM.

With `O=C(O)CCC[P+](c1ccccc1)(c1ccccc1)c1ccccc1`, the half-inhibitory concentration (IC50) was above 20 µM.

For `O=C(CCCc1ccccc1)NCC(CNC(=O)CCCc1ccccc1)(CNC(=O)CCCc1ccccc1)NC(=O)CCCCCCCCCCC[P+](c1ccccc1)(c1ccccc1)c1ccccc1`, the IC50 came out at 0.36 µM.

Consider `N#Cc1ccc([P+](CCCCCCCCCC(=O)O)(c2ccc(C#N)cc2)c2ccc(C#N)cc2)cc1`, for which the IC50 was above 20 µM.

On to `O=C(CCCc1ccccc1)NCC(CNC(=O)CCCc1ccccc1)(CNC(=O)CCCc1ccccc1)NC(=O)CC[P+](c1ccccc1)(c1ccccc1)c1ccccc1`, for which the IC50 was determined as 5.05 µM.

Regarding `COc1cccc([P+](CCCCCCCCCC(=O)O)(c2cccc(OC)c2)c2cccc(OC)c2)c1`, the IC50 is above 20 µM.

As to `N#Cc1ccc([P+](CCCCCCCCCC(=O)NC(CNC(=O)CCCc2ccccc2)(CNC(=O)CCCc2ccccc2)CNC(=O)CCCc2ccccc2)(c2ccc(C#N)cc2)c2ccc(C#N)cc2)cc1`, the IC50 is above 10 µM.

For `O=C(O)CCCCCCCCCCC[P+](c1ccccc1)(c1ccccc1)c1ccccc1`, the IC50 is above 20 µM.

As to `O=C(O)CCCCCCCCC[P+](c1ccc(F)cc1)(c1ccc(F)cc1)c1ccc(F)cc1`, the IC50 is above 20 µM.

Turning to `COC(=O)CCCc1ccccc1`, the IC50 is above 2000 µM.

With `O=C(CCCc1ccccc1)NCC(CNC(=O)CCCc1ccccc1)(CNC(=O)CCCc1ccccc1)NC(=O)CCC[P+](c1ccccc1)(c1ccccc1)c1ccccc1`, the IC50 is 4.56 µM.

Regarding `O=C(CCCc1ccccc1)NCC(CNC(=O)CCCc1ccccc1)(CNC(=O)CCCc1ccccc1)NC(=O)CCCCC[P+](c1ccccc1)(c1ccccc1)c1ccccc1`, the IC50 came out at 3.26 µM.

For the molecule `O=C(CCCc1ccccc1)NCC(CNC(=O)CCCc1ccccc1)(CNC(=O)CCCc1ccccc1)NC(=O)CCCCCCCCC[P+](c1ccc(F)cc1)(c1ccc(F)cc1)c1ccc(F)cc1`, the IC50 came to 1.29 µM.

For the molecule `O=C(O)CCCC[P+](c1ccccc1)(c1ccccc1)c1ccccc1`, the IC50 was above 20 µM.

Regarding `Cc1ccc([P+](CCCCCCCCCC(=O)O)(c2ccc(C)cc2)c2ccc(C)cc2)cc1`, the IC50 was above 20 µM.
